Test results as given in patent publication US5100875A, “Novel peptides having plateler aggregation inhibitory activity” (Institut National de la Sante et de la Recherche Medicale …, priority 1986, dated 1992).
Residues, ends and D or L forms follow the SMILES beside them.

Key:
[1] = tested on: platelets; assay: Inhibition of platelet aggregation (ADP-induced, washed platelets with fibrinogen); type: cell-based; settings: isolated human platelets, ADP 5×10^-6 M, fibrinogen 1.1×10^-6 M
Experimental: The effect of the synthetic peptides on platelet aggregation was studied on platelets isolated as previously described for the study of the binding to fibrinogen. The stimulation of the platelets was also brought about by 5×10^-6 M ADP and the assay was carried out in the presence of 1.1×10^-6 M fibrinogen and of […] CaCl2.

[2] = biological target: T1, platelet fibrinogen receptor (Homo sapiens, UniProt P05106+P08514); assay: Inhibition of platelet-fibrinogen binding (125I-fibrinogen, ADP-stimulated washed platelets); settings: 4×10^7 human platelets, 125I-fibrinogen 0.1×10^-6 M, ADP 5×10^-6 M, CaCl2 0.5 mM, 15 mn incubation
T1 construct: endogenous in cells; host or cells: washed human blood platelets, stimulated with ADP
Experimental: The platelets were isolated from 60 ml of human blood collected in the anticoagulant buffer ACD in a ratio of 1 volume of ACD to 6 volumes of blood.
The blood is then centrifuged for 20 mn at a 1,000 r/mn (JOUAN E 96 centrifuge) at room temperature.
The PRP (plasma rich in platelets) is decanted and treated with 0.1 μM PGE1, then centrifuged for 15 mn at 2,000 r/mn.
The platelets obtained in the pellet are then taken up in 1 ml of Tyrode buffer-albumin, pH 7.2, prepared with the following composition:
The platelets are washed on a column of Sepharose CL 2B using Tyrode buffer-albumin, pH 7.2, then the platelets are recovered and diluted to a concentration of 2×10^8 platelets/ml.
The assays are carried out on 4×10^7 platelets in the presence of CaCl2 (0.5 mM), ^125 I-fibrinogen 0.1×10^-6 M) and different concentrations of peptide, and the stimulation of the platelets is induced by ADP (5×10^-6 M). After incubation for 15 mn and deposition on a 15% saccharose solution the ^125 I-fibrinogen-plateletcomplex is isolated by centrifugation at 12,000 r/mn for 2 mn.
This table also presents the sequence of the peptides.

T1 sequence (P08514 32-887 limits assumed): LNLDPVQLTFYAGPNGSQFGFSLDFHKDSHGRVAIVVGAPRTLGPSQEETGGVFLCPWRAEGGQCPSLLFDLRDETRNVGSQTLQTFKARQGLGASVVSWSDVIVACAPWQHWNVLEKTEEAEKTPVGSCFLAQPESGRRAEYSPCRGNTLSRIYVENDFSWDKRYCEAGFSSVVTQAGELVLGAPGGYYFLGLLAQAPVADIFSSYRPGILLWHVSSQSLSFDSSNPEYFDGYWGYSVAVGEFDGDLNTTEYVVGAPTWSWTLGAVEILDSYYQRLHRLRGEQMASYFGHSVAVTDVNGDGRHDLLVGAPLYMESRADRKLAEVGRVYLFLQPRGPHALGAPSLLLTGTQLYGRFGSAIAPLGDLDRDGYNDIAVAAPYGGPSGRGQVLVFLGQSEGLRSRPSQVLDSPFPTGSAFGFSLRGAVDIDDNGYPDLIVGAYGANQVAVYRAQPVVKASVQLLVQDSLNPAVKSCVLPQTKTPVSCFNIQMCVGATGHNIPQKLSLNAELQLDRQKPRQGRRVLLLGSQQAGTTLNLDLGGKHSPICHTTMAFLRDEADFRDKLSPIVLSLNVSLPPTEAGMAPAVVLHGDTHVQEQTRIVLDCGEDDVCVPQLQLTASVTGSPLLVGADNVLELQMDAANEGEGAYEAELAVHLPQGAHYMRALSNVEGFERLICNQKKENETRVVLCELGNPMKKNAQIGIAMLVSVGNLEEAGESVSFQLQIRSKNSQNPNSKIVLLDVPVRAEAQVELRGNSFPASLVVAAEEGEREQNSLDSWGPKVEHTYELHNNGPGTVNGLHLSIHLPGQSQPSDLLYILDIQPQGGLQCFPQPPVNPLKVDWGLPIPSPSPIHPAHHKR
T1 sequence (P08514 891-1039 partner limits assumed): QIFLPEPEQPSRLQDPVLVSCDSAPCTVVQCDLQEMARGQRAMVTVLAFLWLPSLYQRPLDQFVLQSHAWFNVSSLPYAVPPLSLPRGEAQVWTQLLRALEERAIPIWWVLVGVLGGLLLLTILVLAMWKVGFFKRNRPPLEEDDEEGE
T1 sequence (P05106 27-788): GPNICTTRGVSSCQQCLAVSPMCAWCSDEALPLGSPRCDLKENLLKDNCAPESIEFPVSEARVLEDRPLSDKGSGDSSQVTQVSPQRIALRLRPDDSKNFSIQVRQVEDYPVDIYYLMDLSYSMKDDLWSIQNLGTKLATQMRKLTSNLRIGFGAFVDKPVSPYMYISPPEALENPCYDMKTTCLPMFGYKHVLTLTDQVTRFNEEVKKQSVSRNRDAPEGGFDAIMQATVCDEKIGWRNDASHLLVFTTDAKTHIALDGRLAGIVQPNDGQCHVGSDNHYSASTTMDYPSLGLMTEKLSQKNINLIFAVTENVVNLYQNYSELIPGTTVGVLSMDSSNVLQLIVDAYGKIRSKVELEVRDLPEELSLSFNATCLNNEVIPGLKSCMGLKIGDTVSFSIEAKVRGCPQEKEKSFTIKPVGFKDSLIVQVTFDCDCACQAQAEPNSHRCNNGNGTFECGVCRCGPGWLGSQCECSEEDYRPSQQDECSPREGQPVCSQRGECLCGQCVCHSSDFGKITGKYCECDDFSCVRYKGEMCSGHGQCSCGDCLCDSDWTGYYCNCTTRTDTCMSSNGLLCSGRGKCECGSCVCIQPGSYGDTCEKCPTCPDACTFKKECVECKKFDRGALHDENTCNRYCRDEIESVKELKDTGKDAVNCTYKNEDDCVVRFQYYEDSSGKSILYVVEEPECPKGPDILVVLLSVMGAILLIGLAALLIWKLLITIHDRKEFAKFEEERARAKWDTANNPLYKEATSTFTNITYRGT

N=C(N)NCCC[C@H](N)C(=O)NCC(=O)N[C@@H](CC(=O)O)C(=O)N[C@@H](Cc1ccccc1)C(=O)O [RGDF, H-Arg-Gly-Asp-Phe-OH] (H-RGDF-OH)
IC50 [1]: 15 µM
IC50 [2]: 7 µM

NC(N)=NCCC[C@H](N)C(=O)NCC(=O)N[C@@H](CC(=O)O)C(=O)N[C@@H](Cc1c[nH]c2ccccc12)C(=O)O [RGDW, H-Arg-Gly-Asp-Trp-OH] (H-RGDW-OH)
IC50 [2]: 3.6 µM

H-LRGDF-OH [LRGDF, H-Leu-Arg-Gly-Asp-Phe-OH]
IC50 [1]: 20 µM
IC50 [2]: 20 µM

N=C(N)NCCC[C@H](N)C(=O)NCC(=O)N[C@@H](CC(=O)O)C(=O)N[C@@H](Cc1c[nH]c2ccccc12)C(=O)O [RGDW, H-Arg-Gly-Asp-Trp-OH] (H-RGDW-OH)
IC50 [1]: 10 µM
